According to ChEMBL document CHEMBL3044945, “Synthesis of 1,3,5-trisubstituted pyrazoline nucleus containing compounds and screening for antimicrobial activity” (2012):
Values after ≈ are worked out from the molar mass of the structure shown.

Key:
Type in all cases: functional
Penicillium chrysogenum [1] = assay: Antifungal activity against Penicillium chrysogenum MTCC 161 at 100 ug/ml after 48 hr by cup-plate method; conditions: MTCC 161, 48 h, read-out: DIZ
Pseudomonas aeruginosa [2] = assay: Antibacterial activity against Pseudomonas aeruginosa MTCC 424 at 750 ug/ml after 48 hr by cup-plate method; conditions: MTCC 424, 48 h, read-out: DIZ
Escherichia coli [3] = assay: Antibacterial activity against Escherichia coli MTCC 1573 at 750 ug/ml after 48 hr by cup-plate method; conditions: MTCC 1573, 48 h, read-out: DIZ
Staphylococcus aureus [4] = assay: Antibacterial activity against Staphylococcus aureus MTCC 1430 at 1000 ug/ml after 48 hr by cup-plate method; conditions: MTCC 1430, 48 h, read-out: DIZ
Penicillium chrysogenum [5] = assay: Antifungal activity against Penicillium chrysogenum MTCC 161 at 1250 ug/ml after 48 hr by cup-plate method; conditions: MTCC 161, 48 h, read-out: DIZ
Penicillium chrysogenum [6] = assay: Antifungal activity against Penicillium chrysogenum MTCC 161 at 250 ug/ml after 48 hr by cup-plate method; conditions: MTCC 161, 48 h, read-out: DIZ
Penicillium chrysogenum [7] = assay: Antifungal activity against Penicillium chrysogenum MTCC 161 after 24 to 48 hr by tube dilution method
Escherichia coli [8] = assay: Antibacterial activity against Escherichia coli MTCC 1573 at 1250 ug/ml after 48 hr by cup-plate method; conditions: MTCC 1573, 48 h, read-out: DIZ
Staphylococcus aureus [9] = assay: Antibacterial activity against Staphylococcus aureus MTCC 1430 at 750 ug/ml after 48 hr by cup-plate method; conditions: MTCC 1430, 48 h, read-out: DIZ
Aspergillus niger [10] = assay: Antifungal activity against Aspergillus niger MTCC 2546 after 24 to 48 hr by tube dilution method
Pseudomonas fluorescens [11] = assay: Antibacterial activity against Pseudomonas fluorescens MTCC 2421 after 24 to 48 hr by tube dilution method
Micrococcus luteus [12] = assay: Antibacterial activity against Micrococcus luteus MTCC 1538 at 1000 ug/ml after 48 hr by cup-plate method; conditions: MTCC 1538, 48 h, read-out: DIZ
Staphylococcus aureus [13] = assay: Antibacterial activity against Staphylococcus aureus MTCC 1430 at 1250 ug/ml after 48 hr by cup-plate method; conditions: MTCC 1430, 48 h, read-out: DIZ
Bacillus subtilis [14] = assay: Antibacterial activity against Bacillus subtilis MTCC 441 after 24 to 48 hr by tube dilution method
Staphylococcus aureus [15] = assay: Antibacterial activity against Staphylococcus aureus MTCC 1430 at 250 ug/ml after 48 hr by cup-plate method; conditions: MTCC 1430, 48 h, read-out: DIZ
Penicillium chrysogenum [16] = assay: Antifungal activity against Penicillium chrysogenum MTCC 161 at 500 ug/ml after 48 hr by cup-plate method; conditions: MTCC 161, 48 h, read-out: DIZ
Aspergillus niger [17] = assay: Antifungal activity against Aspergillus niger MTCC 2546 at 1000 ug/ml after 48 hr by cup-plate method; conditions: MTCC 2546, 48 h, read-out: DIZ
Bacillus pumilus [18] = assay: Antibacterial activity against Bacillus pumilus MTCC 1456 at 1250 ug/ml after 48 hr by cup-plate method; conditions: MTCC 1456, 48 h, read-out: DIZ
Bacillus pumilus [19] = assay: Antibacterial activity against Bacillus pumilus MTCC 1456 at 500 ug/ml after 48 hr by cup-plate method; conditions: MTCC 1456, 48 h, read-out: DIZ
Escherichia coli [20] = assay: Antibacterial activity against Escherichia coli MTCC 1573 after 24 to 48 hr by tube dilution method
Bacillus subtilis [21] = assay: Antibacterial activity against Bacillus subtilis MTCC 441 at 750 ug/ml after 48 hr by cup-plate method; conditions: MTCC 441, 48 h, read-out: DIZ
Aspergillus niger [22] = assay: Antifungal activity against Aspergillus niger MTCC 2546 at 100 ug/ml after 48 hr by cup-plate method; conditions: MTCC 2546, 48 h, read-out: DIZ
Pseudomonas aeruginosa [23] = assay: Antibacterial activity against Pseudomonas aeruginosa MTCC 424 at 100 ug/ml after 48 hr by cup-plate method; conditions: MTCC 424, 48 h, read-out: DIZ
Pseudomonas fluorescens [24] = assay: Antibacterial activity against Pseudomonas fluorescens MTCC 2421 at 1250 ug/ml after 48 hr by cup-plate method; conditions: MTCC 2421, 48 h, read-out: DIZ
Bacillus subtilis [25] = assay: Antibacterial activity against Bacillus subtilis MTCC 441 at 100 ug/ml after 48 hr by cup-plate method; conditions: MTCC 441, 48 h, read-out: DIZ
Pseudomonas aeruginosa [26] = assay: Antibacterial activity against Pseudomonas aeruginosa MTCC 424 at 1250 ug/ml after 48 hr by cup-plate method; conditions: MTCC 424, 48 h, read-out: DIZ
Pseudomonas fluorescens [27] = assay: Antibacterial activity against Pseudomonas fluorescens MTCC 2421 at 500 ug/ml after 48 hr by cup-plate method; conditions: MTCC 2421, 48 h, read-out: DIZ
Escherichia coli [28] = assay: Antibacterial activity against Escherichia coli MTCC 1573 at 250 ug/ml after 48 hr by cup-plate method; conditions: MTCC 1573, 48 h, read-out: DIZ
Micrococcus luteus [29] = assay: Antibacterial activity against Micrococcus luteus MTCC 1538 at 750 ug/ml after 48 hr by cup-plate method; conditions: MTCC 1538, 48 h, read-out: DIZ

- MIC (Penicillium chrysogenum [7]): 50 µg/mL (≈ 139 µM)
- MIC (Aspergillus niger [10]): 50 µg/mL (≈ 139 µM)
- MIC (Pseudomonas fluorescens [11]): 200 µg/mL (≈ 555 µM)
- MIC (Bacillus subtilis [14]): 15 µg/mL (≈ 41.6 µM)
- MIC (Escherichia coli [20]): 50 µg/mL (≈ 139 µM)
SMILES: NC(=O)N1N=C(c2cccc3ccccc23)CC1c1ccc([N+](=O)[O-])cc1 (centres undefined)
- zone of inhibition at 100 µg/mL (Penicillium chrysogenum [1]): 8 mm
- zone of inhibition at 750 µg/mL (Pseudomonas aeruginosa [2]): 12 mm
- zone of inhibition at 750 µg/mL (Escherichia coli [3]): 12 mm
- zone of inhibition at 1000 µg/mL (Staphylococcus aureus [4]): 12 mm
- zone of inhibition at 1250 µg/mL (Penicillium chrysogenum [5]): 13 mm
- zone of inhibition at 250 µg/mL (Penicillium chrysogenum [6]): 9 mm
- zone of inhibition at 1250 µg/mL (Escherichia coli [8]): 15 mm
- zone of inhibition at 750 µg/mL (Staphylococcus aureus [9]): 11 mm
- zone of inhibition at 1000 µg/mL (Micrococcus luteus [12]): 10 mm
- zone of inhibition at 1250 µg/mL (Staphylococcus aureus [13]): 14 mm
- zone of inhibition at 250 µg/mL (Staphylococcus aureus [15]): 9 mm
- zone of inhibition at 500 µg/mL (Penicillium chrysogenum [16]): 10 mm
- zone of inhibition at 1000 µg/mL (Aspergillus niger [17]): 17 mm
- zone of inhibition at 1250 µg/mL (Bacillus pumilus [18]): 12 mm
- zone of inhibition at 500 µg/mL (Bacillus pumilus [19]): 9 mm
- zone of inhibition at 750 µg/mL (Bacillus subtilis [21]): 14 mm
- zone of inhibition at 100 µg/mL (Aspergillus niger [22]): 10 mm
- zone of inhibition at 100 µg/mL (Pseudomonas aeruginosa [23]): 9 mm
- zone of inhibition at 1250 µg/mL (Pseudomonas fluorescens [24]): 14 mm
- zone of inhibition at 100 µg/mL (Bacillus subtilis [25]): 10 mm
- zone of inhibition at 1250 µg/mL (Pseudomonas aeruginosa [26]): 15 mm
- zone of inhibition at 500 µg/mL (Pseudomonas fluorescens [27]): 10 mm
- zone of inhibition at 250 µg/mL (Escherichia coli [28]): 10 mm
- zone of inhibition at 750 µg/mL (Micrococcus luteus [29]): 9 mm
